According to patent US10188677B2, “Iron supplement composition” (THE D DROPS COMPANY INC., priority 2011, dated 2019):
Marks after values point to notes of the source that are not given here.

Legend:
Format in all cases: physicochemical
[1] = Drop consistency for Eurodropper dispensing
Description: Drop consistency was examined to determine suitability of various dispersions for Eurodropper dispensing. Preparations of various iron salts, at concentrations of 66 mg/mL, were made using medium chain triglyceride oil. Each sample was shaken vigorously and then inverted to dispense 10 drops. This was repeated until 60 drops were dispensed.
The effect of carrier liquid type on drop consistency was next examined. Preparations of ferrous fumarate (149 μm particle size) were prepared and drop consistency was measured using similar methodology to that described above.

[2] = Settling: time for iron salt particulate to show evidence of settling in carrier liquid
Description: Settling behavior was also tested for each carrier liquid. Test tubes of carrier liquid were loaded with either ferrous sulfate (dried) or ferrous fumarate at concentrations of 66 mg/mL of elemental iron. […] Settling was then allowed to proceed and the time required for the iron salt particulate to show evidence of settling was recorded. Evidence of settling was considered as a reduction in opacity throughout the top 1 cm of liquid in the test tube.

[3] = Dispersion: number of test tube inversions to achieve even dispersion of iron salt in carrier liquid; details: for Dispersion (# of inversions): 66 mg/mL elemental iron
Description: (§1) Iron salt in the form of ferrous sulfate (dried) and ferrous fumarate were investigated for dispersibility and settling behavior in a range of carrier liquids. Sufficient iron salt was added to test tubes to achieve concentrations of elemental iron equivalent to 66 mg/mL suspension (i.e., 2 mg/drop, a commercially-viable concentration for infant supplementation).
The initial preparation of dry powder iron salts into suspension was achieved by weighing the desired amount of dry powder, which was added to the liquid in a capped test tube. The combination was shaken for about two minutes, and it was then allowed to settle overnight to promote thorough particle whetting.
Suitability of the preparation for suspension was next tested by counting the number inversions of the test tube inversions required to achieve an even dispersion of particles in the carrier liquid. Each replicate began with iron salt fully settled at the bottom of the test tube.

[4] = Viscosity and density of carrier liquids
Description: as §1

[5] = iron salt 66 mg/mL in medium chain triglyceride oil
[6] = carrier: medium chain triglyceride, 66 mg/mL elemental iron
[7] = carrier: olive oil, 66 mg/mL elemental iron
[8] = carrier: rapeseed oil, 66 mg/mL elemental iron
[9] = carrier: medium chain triglyceride

SMILES	Dispensing of dispersion from the Eurodropper [1, 5]	Settling [2, 6]	Settling [2, 7]	Settling [2, 8]	Dispersion (# of inversions) [3, 9]	Dispersion (# of inversions) ([3]; carrier: olive oil)	Dispersion (# of inversions) ([3]; carrier: rapeseed oil)	Dispersibility ([3]; water-based preparations)	further results
O=P([O-])([O-])OP(=O)([O-])[O-].[Fe+2].[Fe+2] [Ferrous pyrophosphate]	* Dispersion failed to dispense from the Eurodropper after 15 drops.	–	–	–	–	–	–	–	Average 10 Drop Weight (mg ± SD) ([1]; iron salt 66 mg/mL in medium chain triglyceride oil, Eurodropper, 60 drops): 266 * mg
O=C([O-])/C=C/C(=O)[O-].[Fe+2] [Ferrous fumarate, ferrous fumarate]	–	16.3 ± 1.2 s	95.5 ± 4.9 s	144.0 ± 5.7 s	56.4 ± 10.6 # of inversions	84.0 ± 1.4 # of inversions	167.0 ± 7.0 # of inversions	very easily	Settling ([2]; carrier: water, 66 mg/mL elemental iron): 1.0 ± 0.5 s; Settling ([2]; in water): extremely rapid settling; Dispersibility ([3]; carrier: medium chain triglyceride oil, relative to the other carriers): acceptably rapid; Dispersion (# of inversions) ([3]; carrier: water): 4.3 ± 0.6 # of inversions; Average 10 Drop Weight (mg ± SD) ([1]; ferrous fumarate 149 μm particle size, carrier: canola oil): 284.8 ± 4.7 mg; Average 10 Drop Weight (mg ± SD) ([1]; ferrous fumarate 149 μm particle size, carrier: medium chain triglyceride): 276.2 ± 3.0 mg; Average 10 Drop Weight (mg ± SD) ([1]; ferrous fumarate 149 μm particle size, carrier: olive oil): 285.8 ± 3.5 mg; Average 10 Drop Weight (mg ± SD) ([1]; ferrous fumarate 149 μm particle size, carrier: water): Occluded *; Average 10 Drop Weight (mg ± SD) ([1]; iron salt 66 mg/mL in medium chain triglyceride oil, Eurodropper, 60 drops, listed as Ferrous fumarate (Sigma, XXX μm)): 264.7 ± 10.2 mg; Average 10 Drop Weight (mg ± SD) ([1]; iron salt 66 mg/mL in medium chain triglyceride oil, Eurodropper, 60 drops, listed as Ferrous fumarate (Watson, 149 μm)): 277.0 ± 10.3 mg; Performance in the Eurodropper ([1]; regardless of carrier liquid): consistent performance
O=S(=O)([O-])[O-].[Fe+2] [Ferrous sulfate (dried), ferrous sulfate (dried)]	** Dispersion failed to dispense at all from the Eurodropper because the powder clumped in the oil, and occluded opening.	42.3 ± 8.5 s	213.3 ± 7.6 s	238.7 ± 5.9 s	7.3 ± 0.6 # of inversions	27.3 ± 4.5 # of inversions	62.0 ± 6.0 # of inversions	not at all	–
O [Water]	–	–	–	–	–	–	–	–	Density [4]: 1 g/mL; Viscosity ([4]; @ 20° C.): 1 cP
